# According to patent publication US10308938B2, “Compositions and methods to activate or inhibit toll-like receptor signaling” (priority 2014, dated 2019):
# “Also recorded” adds a separate entry of the source.
# Columns and labels:
# [1] = system: CD4^+ T cells; assay: Proliferation of CFSE-labeled CD4+ T cells stimulated with anti-CD3 and anti-CD28 in the presence of TLR ligands; assay type: cell-based, human; settings: compared to control
# Excerpt: Cell isolation and FACS sorting of T cell populations. Peripheral blood mononuclear cells (PBMC) were isolated from healthy donors by Ficoll Hypaque gradient centrifugation. Total CD4^+ T cells were isolated by negative selection using CD4^+ T cell isolation kit (StemCell Technologies, Vancouver, BC) and stained for fluorescence-activated cell sorting (FACS) with the following antibodies: anti-CD45RO (clone UCHL1), CD45RA (clone H1100), CD25 (clone M-A251) (all from BD Biosciences) and CD127 (clone eBioRDR5) from eBioscience (San Diego, Calif.). The Treg (CD4^+CD25^hiCD127^low/neg) memory T cell (CD4^+CD45RA^−CD45RO^+CD25^low/neg+) and naïve T cell (CD4^+CD45RA^+CD45RO^−CD25^low/neg) populations were sorted on a FACS Aria (BD Biosciences). Unless specified, CD4^+ T cells used in the experiments were Treg-depleted CD4^+ T cells and they were sorted as CD4^+CD25^pos/lowCD127^+. The purity of the sorted CD4^+ T cell population was >98% as assessed by CD3 and CD4 staining after sort. CD14^+ cells were isolated by positive selection using EasySep™ Human CD14 Positive Selection Kit (StemCell Technologies).
# (§1) Cell activation and intracellular staining.
# While examining the costimulatory role of TLR on CD4^+ T cells, it was unexpectedly discovered that entry of CD4^+ cells into cell cycle with T cell receptor cross-linking and anti-CD28 was blocked by TLR7 engagement. Specifically, CD4^+ T cells were stimulated with anti-CD3 and anti-CD28 in the presence of different TLR agonists followed by analysis of proliferation and cytokine secretion.
# [2] = system: CD4^+ T cells; assay: Cytokine secretion by stimulated CD4+ T cells, ELISA; assay type: cell-based, human; settings: day 3 after stimulation
# Excerpt: as §1
# (§2) Enzyme-linked immunosorbent assay.
# [3] = system: CD4^+ T cells; assay: Conversion into regulatory T cells (Foxp3 expression, IL-10 secretion); assay type: cell-based, human
# Excerpt: as §1, §2
# [4] = system: CD4^+ T cells; assay: Anergy-related gene expression, TaqMan real-time PCR; assay type: cell-based, human
# Excerpt: Quantification of mRNA expression levels by RT-PCR. RNA was isolated using QIAGEN RNeasy Micro Plus Kit (QIAGEN, Valencia, Calif.), following manufacturer's guidelines and converted to cDNA by reverse transcription (RT) with random hexamers and Multiscribe RT (TQMN, Reverse Transcription Reagents; Applied Biosystems, Foster City, Calif.). For mRNA gene expression assays, probes were purchased from Applied Biosystems (Table 2) and the reactions were set up following manufacturer's guidelines and run on a StepOne Real-Time PCR System (Applied Biosystems). Values are represented as the difference in Ct values normalized to β2-microglobulin for each sample as per the following formula: Relative RNA expression=(2^−dCt)×1000.
# To examine whether TLR7 stimulation and subsequent NFAT dephosphorylation induces the expression of anergy-related genes, CD4^+ T cells were incubated for 2-16 hours with IMQ in the presence or absence of the TLR7 inhibitory sequence IRS661 and RNA was isolated to examine the hypothesis that TLR7 engagement induced expression of anergy-related genes previously described. As a control for anergy-related gene expression, CD4^+ T cells were incubated with either ionomycin and PMA or ionomycin alone. […] The effect observed in the regulation of these genes was TLR7-specific, as preincubation of CD4^+ T cells with IRS661 before IMQ treatment abrogated the increase in anergy-related gene expression.
# [5] = system: CD4^+ T cells; assay: Phosphorylation status of signaling molecules by flow cytometry; Jun gene expression; assay type: cell-based, human
# Excerpt: TLR7 signaling has predominantly been studied in APC where it is linked to IRF7, NFκB and JNK activation through either MyD88/IRAK4-dependent or -independent pathways. In order to examine the consequences of TLR7 signaling on CD4^+ T cells in relation to ‘conventional’ TLR signaling, ex vivo isolated CD4^+ T cells from healthy individuals were stimulated with IMQ and the phosphorylation status of IRAK4, JNK, NFkB (p65), p38 MAPK and IRF7 was examined by flow cytometry (FIG. 31A). […] One of the targets that are phosphorylated by activated JNK is Jun, a component of AP-1, which is an essential transcription factor involved in costimulatory signal transduction. It was determined if inhibition of JNK activity by IMQ could explain, at least in part, the anergic phenotype observed in CD4^+ T cells after IMQ stimulation in the presence of full stimulation with TCR and costimulatory signals. To test this hypothesis, CD4^+ T cells were stimulated with PMA and Ionomycin in the presence or absence of IMQ, and the phosphorylation status of JNK and Jun was examined at different time points. NFκB and p38 were used as positive controls (FIGS. 31B and 31C).
# [6] = system: HIV-1NL-D; assay: HIV-1 in vitro infection of CD4+ T cells; assay type: cell-based; settings: treatment before infection, MOI 0.001
# Protocol: Preparation of HIV-1 virus stocks. HIV-1 proviral DsRed-tagged DNA pNL-D (derived from the prototype HIV-1 proviral DNA pNL432) was kindly provided by Dr. Yasuko Tsunetsugu-Yokota. 293T cells were used to prepare viral stocks following published protocols with minor modifications. In brief, 293T cells were plated at 0.5×10^6/well in 12-well plates and transfected with 2 μg pNL-D using Lipofectamine 2000 (Invitrogen) for 48 hours. Culture supernatant was treated with benzonase (1U/ml) for 30 minutes at 37 C, cleared by filtration and titrated on 293T cells. Stocks were stored at −80 C.
# HIV-1 in vitro infection. CD4^+ T cells were stimulated with anti-CD3 (1 μg/ml) and anti-CD28 (1 μg/ml) for 48 hours and subsequently infected with HIV-1 at a MOI of 0.001 (concentration within the physiological range). Viability and cytokine secretion was measured every 48 hours for a total of 11 days after infection.
# For HIV-1 infection on TLR7-deficient cells, CD4^+ T cells were stimulated as above and transduced with the corresponding lentiviral particles. 48 hours after transduction, the cells were infected with HIV-1NL-D at a MOI of 0.001. Viability and frequency of HIV-1-infected cells were measured at different time points by LIVE/DEAD cell dye staining and fixation with 1% PFA (to avoid DsRed signal loss). For intracellular staining after infection, the cells were restimulated with PMA and Ionomycin in the presence of GolgiStop for 4 hours and the staining was performed as recommended by Grupillo et al.
# [7] = with PMA and Ionomycin stimulation
# [8] = with PMA and Ionomycin stimulation, listed as IMQ
smiles,measurement,setting,value
CC(C)Cn1cnc2c(N)nc3ccccc3c21 [Imiquimod],proliferation of CD4+ T cells (frequency of proliferating cells),[1],dramatically reduced
same,IFNγ secretion,[2],dramatically reduced
same,IL-2 secretion,[2],decrease
same,IL-4 secretion,[2],decrease
same,IL-17 secretion,[2],dramatically reduced
same,IFNγ secretion,[2]; listed as IMQ,decrease
same,IL-17 secretion,[2]; listed as IMQ,decrease
same,IL-10 secretion,[3]; ELISA day 3,neither Foxp3 expression (FIG. 11B-11C) or IL-10 secretion was increased
same,Foxp3 expression,[3]; day 4,neither Foxp3 expression (FIG. 11B-11C) or IL-10 secretion was increased
same,"expression of Sirt1, Itch, Cblb, Dgka, Egr2 and Egr3","[4]; IMQ treatment, 2 hours",all of them but Egr2 showed a significant upregulation
same,expression of anergy-related genes,"[4]; NFAT1-deficient cells vs non-target transduced, IMQ 2 hours",failed to upregulate
same,expression of 12 anergy-related genes,[4]; compared to control and PMA and ionomycin,Ten of the 12 anergy-related genes examined were significantly upregulated
same,phosphorylation of IRAK4,[5]; IMQ alone vs vehicle,induced
same,phosphorylation of IRF7,[5]; IMQ alone vs vehicle,induced
same,phosphorylation of NFκB,[5]; IMQ alone vs vehicle,induced
same,phosphorylation of p38,[5]; IMQ alone vs vehicle,induced
same,phosphorylated JNK,"[5]; IMQ alone vs vehicle, basal levels",decreased the basal levels
same,Jun gene expression,[5]; after stimulation,decreased
same,NFκB phosphorylation,[5]; [7],did not show an additive effect
same,p38 phosphorylation levels,[5]; [7],further increased
same,JNK phosphorylation,[5]; [8],inhibited; also recorded: decreased
same,Jun phosphorylation,[5]; [8],decreased
same,frequency of HIV-1-infected CD4+ T cells,[6],directly correlated with the concentration of IMQ used
